pIC50: −log10 of the molar value. Where “and” joins values, the source holds several entries; their conditions need not be identical. Equal values may be shown once. Entries after “also recorded” stand apart in the source; their conditions may differ. Values belong to the compound of their own block, whether it stands above or below them.
Legend:
AC5 [1] = target: T1, AC5 (Canis lupus familiaris, UniProt P30803); assay: AC catalytic activity inhibition, AC5 isoform; type: biochemical; design: IC50 for AC5; other: 5 mM MgCl2 with Gsalpha/GTPgammaS/forskolin (50 micro M); other: in the presence of Gsalpha/GTPgammaS/forskolin; other: 10 micro M; conditions: for pIC50: 5 mM MgCl2 with Gsalpha/GTPgammaS/forskolin (50 micro M)
T1 sequence (P30803 whole entry, canonical isoform): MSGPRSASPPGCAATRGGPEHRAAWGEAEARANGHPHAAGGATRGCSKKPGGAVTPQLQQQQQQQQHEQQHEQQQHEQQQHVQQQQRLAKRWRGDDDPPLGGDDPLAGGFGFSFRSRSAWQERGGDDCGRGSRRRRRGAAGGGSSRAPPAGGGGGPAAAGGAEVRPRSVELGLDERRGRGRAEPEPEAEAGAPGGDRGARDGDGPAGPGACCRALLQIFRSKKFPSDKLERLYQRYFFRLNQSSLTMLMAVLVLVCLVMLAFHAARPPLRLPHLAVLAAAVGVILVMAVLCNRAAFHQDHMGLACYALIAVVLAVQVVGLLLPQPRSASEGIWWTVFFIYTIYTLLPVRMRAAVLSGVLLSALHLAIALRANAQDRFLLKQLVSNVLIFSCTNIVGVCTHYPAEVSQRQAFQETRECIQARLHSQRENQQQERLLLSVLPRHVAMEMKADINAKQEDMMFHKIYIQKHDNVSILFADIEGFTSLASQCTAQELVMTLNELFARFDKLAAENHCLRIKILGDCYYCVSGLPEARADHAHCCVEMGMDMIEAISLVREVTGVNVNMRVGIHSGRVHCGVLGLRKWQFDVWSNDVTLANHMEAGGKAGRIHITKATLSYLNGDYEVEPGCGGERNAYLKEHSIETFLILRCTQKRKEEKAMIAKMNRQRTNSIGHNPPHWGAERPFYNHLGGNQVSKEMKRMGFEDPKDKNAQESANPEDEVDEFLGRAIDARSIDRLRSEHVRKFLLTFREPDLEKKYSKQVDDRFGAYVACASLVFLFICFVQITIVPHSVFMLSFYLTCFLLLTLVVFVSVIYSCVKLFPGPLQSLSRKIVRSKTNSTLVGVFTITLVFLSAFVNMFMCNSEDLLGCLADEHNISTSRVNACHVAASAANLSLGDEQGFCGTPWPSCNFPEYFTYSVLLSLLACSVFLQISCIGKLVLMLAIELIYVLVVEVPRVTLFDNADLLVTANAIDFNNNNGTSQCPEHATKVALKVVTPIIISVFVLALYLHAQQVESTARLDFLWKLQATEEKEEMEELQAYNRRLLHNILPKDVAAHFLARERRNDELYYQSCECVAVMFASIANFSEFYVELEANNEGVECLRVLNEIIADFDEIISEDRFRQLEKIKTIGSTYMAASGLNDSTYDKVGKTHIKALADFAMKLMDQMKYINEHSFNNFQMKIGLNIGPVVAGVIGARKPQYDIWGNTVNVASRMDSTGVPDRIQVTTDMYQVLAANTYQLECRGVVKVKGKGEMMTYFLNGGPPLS
Excerpt: FIG. 11. […] The relative inhibitory activity versus control (% control activity) for various AC isoforms are shown. Data are means±S.D. of quadruplicate determinations.
Classic inhibitors of AC include adenosine analogs or P-site inhibitors, and MDL12330A, a non-nucleic acid inhibitor. However, not much was known about the isoform selectivity of these inhibitors. […] It was previously noted that AC2 was less sensitive to THFA than the other isoforms, giving a selectivity ratio of 1.8 when compared between AC6 and AC2.
Inventors will first determine the selectivity among the AC isoforms (FIG. 12). […] The IC50 values were calculated to be 0.32 micro M for AC5, 11.1 micro M for AC3, 65.3 micro M for AC2. The selectivity ratio of HI30435 was 207 between AC5 and AC2. […] The selectivity ratio was 18 between AC5 and AC2.

AC5 [2] = target: T1, AC5; assay: Adenyl cyclase stimulation by forskolin derivatives, High five cell membranes overexpressing type V; type: biochemical; design: made in house; host or cells: High Five insect cells (membranes); conditions: forskolin derivatives
Experimental: FIG. 15: Effect of forskolin, 6[3-(dimethylamino)propionyl]-14,15-dihydroforskolin, and NKH477 on adenyl cyclase [isforms.] isoforms: Forskolin derivatives dose response effect (A-C). High five cell membranes overexpressing type II (A), type III (B), and type V (C) adenyl cyclases. Adenyl cyclase activity was measured in the presence of 5 mM of MgCl2 with various concentrations of forskolin (closed circles), 6[3-(dimethylamino)propionyl]-14,15-dihydroforskolin (D, open triangles) or NKH477 (open circles). Means±SEM from 4 independent experiments are shown. *, p<0.01 differences from the value with forskolin.

[3] = tested on: conscious WT and AC5KO mice; assay: Physiological studies in conscious mice: HR (ECG) and arterial pressure; type: in vivo, mouse; conditions: for increase in HR: 1 μg/g i.v.; for change of HR: 0.75 mg/kg i.v.
Excerpt: FIG. 19: Muscarinic regulation of cardiac function in vivo. A, Effects of atropine. […] B, Effect of ACh. […] C, Baroreflex regulation of HR.
In AC5KO and WT mice, four ECG wires (New England Electric Wire Corporation, Lisbon, N.H., USA) were placed subcutaneously, a silicone elastomer tubing (Cardiovascular Instrument Corp., Wakefield, Mass., USA) was inserted into the right external jugular vein and a 1.4 F micromanometer catheter (Millar Instruments, Inc., Houston, Tex., USA) was inserted into the lower abdominal aorta via the femoral artery as described previously with some modifications. The ECG wires, the silicone elastomer tubing and the micromanometer catheter were tunneled subcutaneously to the back, externalized, and secured in a plastic cap. On the day of the study, each mouse was placed in the mouse holder, the jugular venous catheter was accessed and connected to a microliter syringe (Hamilton Co., Reno, Nev., USA), the 1.4 F micromanometer catheter was connected to a recorder (Dash 4u; Astro-Med, Inc., West Warwick, R.I., USA) and the ECG wires were connected to an ECG amplifier (Gould Inc., Cleveland, Ohio, USA). All experiments were recorded with animals in the conscious state. After at least 6 hours recovery from the implantation of the catheter, when a stable HR was achieved, the baseline ECG and arterial pressure (AP) were recorded for 5 min. Ach (0.05 μg/g) was then administered intravenously (i.v.), and the ECG and AP recording were repeated. A recovery period of 15 min was allowed for the HR and AP to return to baseline before administering the next drug. Baseline HR slowing was examined in response to phenylephrine (0.2 μg/g i.v.).
Electrocardiogram (ECG) wires, a jugular vein catheter for drug infusion, and a femoral artery catheter for arterial pressure monitoring were implanted under anesthesia as described previously. […] Intravenous (i.v.) infusion of ISO (0.04 μg/kg/min i.v. for 5 min) was performed using an infusion pump. To examine the responses to a muscarinic agonist, acetylcholine (ACh) (25 mg/kg i.p.) was co-administered i.p. during the i.v. infusion of ISO (0.04 μg/kg/min). In addition, in conscious mice ACh (0.01 and 0.05 mg/kg), atropine (0.25, 1 and 2 mg/kg), or verapamil (0.75 mg/kg) were administered i.v., and the ECG was recorded. A recovery period of 15 min was allowed for the HR to return to baseline before administering the next drug. To examine HR responses to baroreflex hypertension, phenylephrine (0.2 mg/kg i.v.) was infused, and the ECG and arterial pressure were measured

AC3 = target: T2, AC3 (Rattus norvegicus, UniProt P21932); assay: AC catalytic activity inhibition, AC3 isoform; type: biochemical; conditions: in the presence of Gsalpha/GTPgammaS/forskolin
T2 sequence (P21932 1-1144): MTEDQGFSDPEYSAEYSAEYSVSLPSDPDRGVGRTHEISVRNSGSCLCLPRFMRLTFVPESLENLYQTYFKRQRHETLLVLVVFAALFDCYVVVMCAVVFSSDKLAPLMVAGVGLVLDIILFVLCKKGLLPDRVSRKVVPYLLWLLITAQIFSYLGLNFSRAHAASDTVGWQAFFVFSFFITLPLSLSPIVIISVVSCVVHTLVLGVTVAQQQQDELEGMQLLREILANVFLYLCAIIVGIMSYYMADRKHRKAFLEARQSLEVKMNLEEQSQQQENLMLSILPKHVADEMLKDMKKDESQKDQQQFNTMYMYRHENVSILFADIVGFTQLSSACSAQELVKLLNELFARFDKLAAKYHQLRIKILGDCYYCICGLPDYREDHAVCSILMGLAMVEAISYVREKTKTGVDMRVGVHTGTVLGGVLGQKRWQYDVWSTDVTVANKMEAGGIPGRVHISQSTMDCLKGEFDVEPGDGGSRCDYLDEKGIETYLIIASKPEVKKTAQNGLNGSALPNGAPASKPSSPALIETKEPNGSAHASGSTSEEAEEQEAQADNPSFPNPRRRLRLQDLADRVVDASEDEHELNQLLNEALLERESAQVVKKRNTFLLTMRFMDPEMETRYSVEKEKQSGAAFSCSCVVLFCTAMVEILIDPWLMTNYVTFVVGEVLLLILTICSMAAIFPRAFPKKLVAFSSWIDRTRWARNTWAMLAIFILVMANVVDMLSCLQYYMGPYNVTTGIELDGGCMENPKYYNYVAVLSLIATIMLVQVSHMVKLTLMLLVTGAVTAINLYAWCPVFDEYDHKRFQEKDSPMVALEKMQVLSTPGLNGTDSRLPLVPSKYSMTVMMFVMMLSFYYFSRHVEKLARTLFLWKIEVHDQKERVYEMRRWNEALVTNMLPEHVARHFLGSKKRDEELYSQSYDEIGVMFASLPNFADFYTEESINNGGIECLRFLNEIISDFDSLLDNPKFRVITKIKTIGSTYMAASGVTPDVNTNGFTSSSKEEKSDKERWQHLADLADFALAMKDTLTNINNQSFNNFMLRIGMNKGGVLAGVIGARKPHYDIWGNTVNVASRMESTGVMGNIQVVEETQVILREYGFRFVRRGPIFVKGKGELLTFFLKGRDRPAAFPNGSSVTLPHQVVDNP
Excerpt: (§1) Classic inhibitors of AC include adenosine analogs or P-site inhibitors, and MDL12330A, a non-nucleic acid inhibitor.
(§2) Inventors will first determine the selectivity among the AC isoforms (FIG. 12).

AC2 = AC2 (Rattus norvegicus, UniProt P26769); assay: AC catalytic activity inhibition, AC2 isoform; type: biochemical; conditions: in the presence of Gsalpha/GTPgammaS/forskolin
Excerpt: as §1, §2

cardiac AC = assay: AC assay in heart membrane preparations; type: biochemical, mouse; conditions: 10 μM
Experimental: FIG. 17: Adrenergic, muscarinic, and Ca^2+-mediated regulation of cardiac AC activity. A, AC activity in vitro. The steady state AC activity was determined as the maximal cAMP production over 15 min. Stimulation was performed at the level of the β-AR (ISO), G-protein (GTPγS) and AC catalytic unit with forskolin (Fsk). *P<0.01, n=5. B, Effects of carbachol on AC activity. AC was preactivated by ISO. AC activity was then determined in the absence and presence of carbachol. Carbachol at 10 μmol/L produced its maximal inhibitory effect. *P<0.01, n−5. C, To investigate the inhibition of AC activity by Ca^2+, we examined cAMP production in membranes from the hearts of WT and AC5KO at increasing Ca^2+ concentrations in the presence of ISO. ISO-stimulated AC activity was inhibited more in WT than in AC5KO. […].
Hearts were dissected from the mice and membrane preparations were prepared as described previously. Protein concentration was measured by the method of Bradford using bovine serum albumin as a standard. AC activity was measured as described previously. AC activity was linear within the incubation time up to 30 min. In order to harvest hearts for tissue cAMP content measurements, mice were allowed to acclimate to the surroundings in the laboratory for an hour before sacrifice. Freshly isolated hearts were briefly immersed in liquid nitrogen. The tissue was homogenized in ice-cold 6% percholic acid, and cAMP was extracted as described before. The concentration of cAMP was determined with an RIA kit (PerkinElmer Life Sciences, Boston, Mass., USA).
Hearts were dissected from the mice, and membrane preparations were prepared as described previously. Protein concentration was measured by the Bradford method using bovine serum albumin as a standard. AC activity was measured as described previously. AC activity was linear within the incubation time up to 30 min. For the study of Ca 2+ inhibition, the membranes were treated first with EGTA to extract the endogenous Ca 2+ prior to the assay. Free Ca 2+ concentrations were obtained with the use of 200 μmol/L EGTA buffers as described previously. The experiments with Ca 2+ inhibition were conducted in the presence of 100 μmol/L isoproterenol (ISO)+100 μmol/L GTP.

pIC50 (AC5 [1]): 6.09
Structure (SMILES): Nc1ncnc2c1ncn2[C@H]1C[C@H](OP(=O)(O)O)[C@@H](CO)O1 [2′-d-3′-AMP]

pIC50 (AC5 [1]): 4.84
Structure (SMILES): Nc1ncnc2c1ncn2[C@@H]1O[C@H](CO)[C@@H](OP(=O)(O)O)[C@H]1O [3′-AMP]

AC5 selectivity of stimulation (in words) (AC5 [2]): small enhancement in AC5 selectivity
Structure (SMILES): CC[C@@]1(C)CC(=O)[C@@]2(O)[C@]3(C)[C@H](O)CCC(C)(C)[C@H]3[C@@H](O)[C@@H](OC(C)=O)[C@]2(C)O1 [14,15-Dihydroforskolin]

Structure (SMILES): CC(=O)OCC[N+](C)(C)C [ACh, acetylcholine]
decrease of HR ([3]; conscious AC5KO, 0.01 μg/g i.v. (Example 2)): 7.5%
decrease of HR ([3]; conscious AC5KO, 0.01 mg/kg i.v. (Example 3)): 1.3%
decrease of HR ([3]; conscious WT, 0.01 μg/g i.v. (Example 2)): 22%
decrease of HR ([3]; conscious WT, 0.01 mg/kg i.v. (Example 3)): 15%

inhibition of AC3 (in words) (AC3): only to a modest degree
inhibition of AC2 (in words) (AC2): only to a modest degree
inhibition of AC5 (in words) (AC5 [1]; in the presence of Gsalpha/GTPgammaS/forskolin): potently inhibited AC5
Structure (SMILES): Nc1ncnc2c1ncn2C1CCCC1 [CPA, 9-(cyclopentyl)adenine]

Structure (SMILES): C[N+](C)(C)CCOC(N)=O [Carbachol]
decrease of ISO-stimulated AC activity (in words) (cardiac AC; AC5KO heart membranes): did not inhibit; also recorded: hardly detectable
decrease of ISO-stimulated AC activity (cardiac AC; WT heart membranes, ISO 100 μM + GTP 100 μM): 21±3.4% and 21±3%

Structure (SMILES): CNC[C@H](O)c1cccc(O)c1 [Phenylephrine, phenylephrine]
systolic arterial pressure (in words) ([3]; WT and AC5KO, 0.2 μg/g (0.2 mg/kg) i.v.): increased systolic arterial pressure significantly in both WT and AC5KO; also recorded: increased systolic arterial pressure similarly in both WT and AC5KO

Structure (SMILES): CN1[C@@H]2CC[C@H]1C[C@@H](OC(=O)C(CO)c1ccccc1)C2 (stereo partly drawn) [atropine]
increase in HR ([3]; conscious AC5KO): 19±7.5 beats/min
increase in HR (in words) ([3]; conscious AC5KO, 1 mg/kg i.v. (Example 3)): not observed in AC5KO
increase in HR ([3]; conscious WT): 102±22.2 beats/min

Structure (SMILES): COc1ccc(CCN(C)CCCC(C#N)(c2ccc(OC)c(OC)c2)C(C)C)cc1OC (stereo not drawn) [verapamil]
change of HR ([3]; conscious AC5KO): −33±10 beats/min
change of HR ([3]; conscious WT): −36±10 beats/min

Source: patent US20060252774A1, “Regulation of type 5 adenylyl cyclase for treatment of neurodegenerative and cardiac diseases” (priority 2002, published 2006)
